In patent US20020098211A1, “ANTIMICROBIAL AGENT AND USES THEREOF, IN PARTICULAR IN COSMETICS AND DERMATOLOGY” (priority 1998, published 2002):

Test system: Enterococcus faecalis (American Type Culture Collection No. 33186)
Assay: Antimicrobial (preservation) challenge test, count of surviving microorganisms in the inoculated product
Method: Bacterium: Enterococcus faecalis (American Type Culture Collection No. 33186), cultured on soybean Trypticase Yeast: Candida albicans (American Type Culture Collection No. 10231), cultured on Sabouraud.
Inoculum preparation: tryptone-salt diluent
Counting: Eugon LT100 agar broth
On the evening before the test, each microbial strain is plated out on the appropriate agar medium and incubated in an oven at 35° C.
On the day of the test, 20 grams of the product are weighed out in a sterile pill box. Inoculation is carried out at a concentration of 1% using a microbial suspension with a titre of 108 microorganisms per ml: a concentration of 106 is obtained in the product. The contaminated sample is incubated in an oven at 22° C.
After incubation for 7 days, 1 gram of product is taken and tenfold dilutions are carried out in Eugon LT100 broth, and these dilutions are plated out on the surface of Petri dishes containing Eugon LT100 agar. The dishes are incubated at 35° C.
The colonies are counted on the dishes containing more than 20 and less than 200 colonies.

Row | Compound | number of microorganisms per gram of preparation, remaining in the product after 7 days of contact (Table 5, single agent at 3%) | other results
1 | CC(O)CCO (stereo not shown) [Butanediol, butanediol] | 4.0 × 10^5 microorganisms per gram of preparation | 
2 | CCCCCCC(O)CO (stereo not shown) [Octanediol, 1,2-octanediol] |  | number of microorganisms per gram of preparation, remaining in the product after 7 days of contact (Table 5, single agent at 0.25%): 3.7 × 10^5 microorganisms per gram of preparation
3 | CCCCCCCC(=O)OC(C)C(=O)OC(C)C(=O)[O-].[Na+] (stereo not shown) [Sodium capryl lactyl lactylate, sodium capryl lactyl lactylate] |  | number of microorganisms per gram of preparation, remaining in the product after 7 days of contact (Table 5, single agent at 1%): 1.5 × 10^4 microorganisms per gram of preparation
4 | CCCC(O)CO (stereo not shown) [pentanediol, 1,2-pentanediol] | 2.3 × 10^5 microorganisms per gram of preparation | 
